Reference: PubChem BioAssay (NCI)
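Exposure lasted 48 hours, with cells grown in 96-well plates and compounds tested at five concentrations. GI50: concentration for 50% inhibition of growth. TGI is the concentration that stops growth completely.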

Experiments:
Assay in all cases: inhibition of tumour cell growth, NCI panel, 48 h
SW-620 colon = test system: SW-620 colon
SF-295 CNS = test system: SF-295 CNS
NCI-H226 lung = test system: NCI-H226 lung
UACC-257 melanoma = test system: UACC-257 melanoma
MDA-MB-231 breast = test system: MDA-MB-231 breast
786-0 renal = test system: 786-0 renal
SF-539 CNS = test system: SF-539 CNS
HS 578T breast = test system: HS 578T breast
SNB-19 CNS = test system: SNB-19 CNS
SK-MEL-2 melanoma = test system: SK-MEL-2 melanoma
UACC-62 melanoma = test system: UACC-62 melanoma
NCI/ADR-RES ovarian = test system: NCI/ADR-RES ovarian
SK-MEL-28 melanoma = test system: SK-MEL-28 melanoma
RXF 393 renal = test system: RXF 393 renal
TK-10 renal = test system: TK-10 renal
MOLT-4 leukemia = test system: MOLT-4 leukemia
SF-268 CNS = test system: SF-268 CNS
NCI-H522 lung = test system: NCI-H522 lung
SK-MEL-5 melanoma = test system: SK-MEL-5 melanoma
MCF7 breast = test system: MCF7 breast
ACHN renal = test system: ACHN renal
SNB-75 CNS = test system: SNB-75 CNS
KM12 colon = test system: KM12 colon
RPMI-8226 leukemia = test system: RPMI-8226 leukemia
K-562 leukemia = test system: K-562 leukemia
NCI-H23 lung = test system: NCI-H23 lung
SK-OV-3 ovarian = test system: SK-OV-3 ovarian
EKVX NSCLC = test system: EKVX NSCLC

Question: Which results are given for `CSC1=Nc2c(c(C)c(-c3ccccc3)n2COC(CO)CO)C2=NC(=O)CC(C)N12` (stereo unspecified)?
Answer: GI50 (SW-620 colon): > 100 µM; TGI (SW-620 colon): > 100 µM; GI50 (SF-295 CNS): > 100 µM; TGI (SF-295 CNS): > 100 µM; GI50 (NCI-H226 lung): > 100 µM; TGI (NCI-H226 lung): > 100 µM; GI50 (UACC-257 melanoma): > 100 µM; TGI (UACC-257 melanoma): > 100 µM; GI50 (MDA-MB-231 breast): > 100 µM; TGI (MDA-MB-231 breast): > 100 µM; GI50 (786-0 renal): > 100 µM; TGI (786-0 renal): > 100 µM; GI50 (SF-539 CNS): > 100 µM; TGI (SF-539 CNS): > 100 µM; GI50 (HS 578T breast): > 100 µM; TGI (HS 578T breast): > 100 µM; GI50 (SNB-19 CNS): > 100 µM; TGI (SNB-19 CNS): > 100 µM; GI50 (SK-MEL-2 melanoma): > 100 µM; TGI (SK-MEL-2 melanoma): > 100 µM; GI50 (UACC-62 melanoma): > 100 µM; TGI (UACC-62 melanoma): > 100 µM; GI50 (NCI/ADR-RES ovarian): > 100 µM; TGI (NCI/ADR-RES ovarian): > 100 µM; GI50 (SK-MEL-28 melanoma): > 100 µM; TGI (SK-MEL-28 melanoma): > 100 µM; GI50 (RXF 393 renal): > 100 µM; TGI (RXF 393 renal): > 100 µM; GI50 (TK-10 renal): > 100 µM; TGI (TK-10 renal): > 100 µM; GI50 (MOLT-4 leukemia): > 100 µM; TGI (MOLT-4 leukemia): > 100 µM; GI50 (SF-268 CNS): > 100 µM; TGI (SF-268 CNS): > 100 µM; GI50 (NCI-H522 lung): > 100 µM; TGI (NCI-H522 lung): > 100 µM; GI50 (SK-MEL-5 melanoma): > 100 µM; TGI (SK-MEL-5 melanoma): > 100 µM; GI50 (MCF7 breast): > 100 µM; TGI (MCF7 breast): > 100 µM; GI50 (ACHN renal): > 100 µM; TGI (ACHN renal): > 100 µM; GI50 (SNB-75 CNS): 85.3 µM; TGI (SNB-75 CNS): > 100 µM; GI50 (KM12 colon): > 100 µM; TGI (KM12 colon): > 100 µM; GI50 (RPMI-8226 leukemia): > 100 µM; TGI (RPMI-8226 leukemia): > 100 µM; GI50 (K-562 leukemia): > 100 µM; TGI (K-562 leukemia): > 100 µM; GI50 (NCI-H23 lung): > 100 µM; TGI (NCI-H23 lung): > 100 µM; GI50 (SK-OV-3 ovarian): > 100 µM; TGI (SK-OV-3 ovarian): > 100 µM; GI50 (EKVX NSCLC): > 100 µM; TGI (EKVX NSCLC): > 100 µM
